Experimental findings from patent publication US12398147B2, “Macrocyclic spiropyrrolidine derived antiviral agents” (Enanta Pharmaceuticals, Inc., priority 2021, dated 2025) are described below.

A word on the IC50: it is the midpoint of a concentration-inhibition curve. One may read the EC50 as the concentration that produces a half-maximal response.

One data set concerns the target SARS-CoV-2 3CL-protease (Severe acute respiratory syndrome coronavirus 2 (2019-nCoV) (SARS-CoV-2), UniProt P0DTD1). In words: biochemical.
For data set [1], the system named is 229E human corona virus (hCoV). In words: 229E Cellular Assay (MRC5), live virus assay, ATPlite. Format: cell-based, hCoV-229E. To be noted: read-out: EC50 (229E). For orientation: Cellular ATP, detected with luciferase, serves as a proxy for viable cell number.
The next data set relates to SARS-CoV-2 USA-WA1/2020. In words: SARS-CoV-2 Cellular Assay (Vero 76), inhibition of CPE, neutral red. The format is cell-based. The following applies: Severe acute respiratory syndrome coronavirus 2, 144 h; Vero 76 cells infected with SARS-CoV-2 USA-WA1/2020, day 6, neutral red CPE.
A short description of the next data set: in vitro. The following applies: African green monkey.
Where [2] appears, read: recombinant SARS-CoV-2 3CL-protease 10 nM, 30 min preincubation, read-out: FRET IC50.
[3] abbreviates: Human coronavirus 229E, MRC5, 144 h, MRC-5 cells, hCoV-229E MOI 0.05, 6 days, ATPlite.

Structures are written as SMILES. Like-named read-outs stand apart in the source and are kept apart here. A value given as a limit tells only on which side of the number the result lay.

As to `CC(C)C[C@H]1C(=O)N2C[C@]3(C[C@H]2C#N)C(=O)Nc2ccc(cc23)C=CCCCN1C(=O)OCc1ccccc1` [Example 1], on SARS-CoV-2 3CL-protease (setting [2]), the IC50 is less than 100 nM. In addition, in data set [1] (MRC-5 cells, hCoV-229E MOI 0.05, 6 days, ATPlite), the EC50 is 100 to 1000 nM.
In the case of `CC(C)C[C@H]1C(=O)N2C[C@]3(C[C@H]2C#N)C(=O)Nc2ccc(cc23)CCCCCN1C(=O)OCc1ccccc1` [Example 2], the IC50 at SARS-CoV-2 3CL-protease (setting [2]) is less than 100 nM. For the same molecule, the EC50 in data set [1] (setting [3]) was 100 to 1000 nM.
`CC(C)C[C@H]1C(=O)N2C[C@]3(C[C@H]2C#N)C(=O)Nc2ccc(cc23)/C=C\CCN1C(=O)OCc1ccccc1` [Example 3]: the IC50 on SARS-CoV-2 3CL-protease (setting [2]) was less than 100 nM. Further, the concentration for a half-maximal effect (EC50) in data set [1] (Human coronavirus 229E, MRC5, 144 h) lay in the range of 100 to 1000 nM.
In the case of `CC(C)C[C@H]1C(=O)N2C[C@]3(C[C@H]2C#N)C(=O)Nc2ccc(cc23)CCCCCN1C(=O)c1cc2c(F)cc(F)cc2[nH]1` [Example 4], the IC50 on SARS-CoV-2 3CL-protease (setting [2]) is less than 100 nM. The EC50 in the data set with SARS-CoV-2 USA-WA1/2020 is less than 1000 nM; in data set [1] (setting [3]), less than 100 nM. The CC50 in “in vitro” fell in the range of 1000 to 50000 nM.
For the molecule `CC(C)C[C@H]1C(=O)N2C[C@]3(C[C@H]2C#N)C(=O)Nc2ccc(cc23)CCCCCN1C(=O)c1cc2c(F)cc(F)c(F)c2[nH]1` [Example 5], at SARS-CoV-2 3CL-protease (setting [2]), the IC50 was less than 100 nM. Moreover, the EC50 in the data set with SARS-CoV-2 USA-WA1/2020 is less than 1000 nM; in data set [1] (setting [3]), less than 100 nM. The CC50 in the data set “in vitro” was in the range of 1000 to 50000 nM.
For the molecule `CC(C)C[C@H]1C(=O)N2C[C@]3(C[C@H]2C#N)C(=O)Nc2ccc(cc23)CCCCCN1C(=O)c1cc2ccc(C(F)(F)F)cc2[nH]1` [Example 6], on SARS-CoV-2 3CL-protease (setting [2]), the IC50 fell in the range of 100 to 1000 nM. Moreover, in data set [1] (setting [3]), the EC50 was less than 100 nM.
`CC(C)C[C@H]1C(=O)N2C[C@]3(C[C@H]2C#N)C(=O)Nc2ccc(cc23)CCCCCN1C(=O)c1cn(-c2ccccc2)nn1` [Example 7]: the IC50 at SARS-CoV-2 3CL-protease (setting [2]) was less than 100 nM. In addition, the concentration for a half-maximal effect (EC50) in the data set with SARS-CoV-2 USA-WA1/2020 is less than 1000 nM; in data set [1] (setting [3]) it was less than 100 nM. In addition, in “in vitro”, the CC50 lay within 1000 to 50000 nM.
For the molecule `CC(C)C[C@H]1C(=O)N2C[C@]3(C[C@H]2C#N)C(=O)Nc2ccc(cc23)CCCCCCN1C(=O)c1cc2c(F)cc(F)cc2[nH]1` [Example 8], the IC50 at SARS-CoV-2 3CL-protease (setting [2]) was 100 to 1000 nM. The EC50 in data set [1] (setting [3]) fell in the range of 100 to 1000 nM.
Turning to `N#C[C@@H]1C[C@]23CN1C(=O)[C@H](Cc1ccccc1)N(C(=O)c1cc4c(F)cc(F)cc4[nH]1)CCCCCc1ccc(c2c1)NC3=O` [Example 9], the IC50 at SARS-CoV-2 3CL-protease (setting [2]) was less than 100 nM. Further, the EC50 in the data set with SARS-CoV-2 USA-WA1/2020 is less than 1000 nM; in data set [1] (setting [3]) it was less than 100 nM. Besides, the CC50 in “in vitro” was in the range of 1000 to 50000 nM.
As for `N#C[C@@H]1C[C@]23CN1C(=O)[C@H](Cc1ccccc1)N(C(=O)c1cn(-c4ccc(F)cc4)nn1)CCCCCc1ccc(c2c1)NC3=O` [Example 10], the IC50 at SARS-CoV-2 3CL-protease (setting [2]) is less than 100 nM. Further, in the data set on SARS-CoV-2 USA-WA1/2020, the half-maximal effective concentration (EC50) is less than 1000 nM. In addition, the CC50 in the data set “in vitro” is 1000 to 50000 nM.
`CC(C)C[C@H]1C(=O)N2C[C@]3(C[C@H]2C#N)C(=O)Nc2ccc(cc23)CCCCCN1C(=O)c1nnn(-c2ccccc2)n1` [Example 11]: at SARS-CoV-2 3CL-protease (setting [2]), the IC50 was less than 100 nM. Further, the EC50 in data set [1] (setting [3]) is 100 to 1000 nM.
In the case of `CC(C)C[C@H]1C(=O)N2C[C@]3(C[C@H]2C#N)C(=O)Nc2ccc(cc23)CCCCCN1C(=O)c1cn(C2CCC2)nn1` [Example 12], the IC50 on SARS-CoV-2 3CL-protease (setting [2]) was less than 100 nM. In addition, in data set [1] (setting [3]), the EC50 is less than 100 nM.
The molecule `CC(C)C[C@H]1C(=O)N2C[C@]3(C[C@H]2C#N)C(=O)Nc2ccc(cc23)CCCCCN1C(=O)c1nnc(-c2ccccc2)[nH]1` [Example 13] showed an IC50 against SARS-CoV-2 3CL-protease of 100 to 1000 nM. Further, in data set [1] (setting [3]), the EC50 fell in the range of 100 to 1000 nM.
Turning to `CC(C)C[C@H]1C(=O)N2C[C@]3(C[C@H]2C#N)C(=O)Nc2ccc(cc23)CCCCCN1C(=O)c1cn(C2CC2)nn1` [Example 14], the IC50 at SARS-CoV-2 3CL-protease (setting [2]) is less than 100 nM. In addition, the EC50 with SARS-CoV-2 USA-WA1/2020 was less than 1000 nM; in data set [1] (setting [3]), less than 100 nM. Also, the CC50 in “in vitro” is 1000 to 50000 nM.
As to `CCCC[C@H]1C(=O)N2C[C@]3(C[C@H]2C#N)C(=O)Nc2ccc(cc23)CCCCCN1C(=O)c1cc2c(F)cc(F)cc2[nH]1` [Example 15], the IC50 at SARS-CoV-2 3CL-protease (setting [2]) was less than 100 nM. Moreover, in data set [1] (setting [3]), the EC50 was less than 100 nM.
Turning to `CCCC[C@H]1C(=O)N2C[C@]3(C[C@H]2C#N)C(=O)Nc2ccc(cc23)CCCCCN1C(=O)c1cn(-c2cc(F)c(F)cc2F)nn1` [Example 16], the IC50 at SARS-CoV-2 3CL-protease (setting [2]) is less than 100 nM. In data set [1] (setting [3]), the EC50 was less than 100 nM.
On to `CC(C)C[C@H]1C(=O)N2C[C@]3(C[C@H]2C#N)C(=O)Nc2ccc(cc23)CCCCCN1C(=O)c1cnn(C(C)(C)C)c1` [Example 17], for which the IC50 at SARS-CoV-2 3CL-protease (setting [2]) is less than 100 nM. The EC50 in data set [1] (setting [3]) was less than 100 nM.
As for `CC(C)C[C@H]1C(=O)N2C[C@]3(C[C@H]2C#N)C(=O)Nc2ccc(cc23)CCCCCN1C(=O)c1cnn(-c2ccc(C(F)(F)F)cc2)c1` [Example 18], on SARS-CoV-2 3CL-protease (setting [2]), the IC50 was less than 100 nM. Besides, the EC50 in data set [1] (setting [3]) was less than 100 nM.
`CCCC[C@H]1C(=O)N2C[C@]3(C[C@H]2C#N)C(=O)Nc2ccc(cc23)CCCCCN1C(=O)c1cc2c(F)cc(F)c(F)c2[nH]1` [Example 19]: the IC50 at SARS-CoV-2 3CL-protease (setting [2]) is less than 100 nM. Besides, in data set [1] (setting [3]), the EC50 was less than 100 nM.
In the case of `CC(C)(C)C[C@H]1C(=O)N2C[C@]3(C[C@H]2C#N)C(=O)Nc2ccc(cc23)CCCCCN1C(=O)c1cc2c(F)cc(F)cc2[nH]1` [Example 20], at SARS-CoV-2 3CL-protease (setting [2]), the IC50 is less than 100 nM. In addition, the EC50 in data set [1] (setting [3]) was less than 100 nM.
`CC(C)C[C@H]1C(=O)N2C[C@]3(C[C@H]2C#N)C(=O)Nc2ccc(cc23)CCCCCN1C(=O)c1cnn(-c2ccccc2C(F)(F)F)c1` [Example 21]: on SARS-CoV-2 3CL-protease (setting [2]), the IC50 was less than 100 nM. For the same molecule, in data set [1] (setting [3]), the EC50 was less than 100 nM.
`CC(C)C[C@H]1C(=O)N2C[C@]3(C[C@H]2C#N)C(=O)Nc2ccc(cc23)CCCCCN1C(=O)c1cnn(-c2ccccc2Cl)c1` [Example 22]: at SARS-CoV-2 3CL-protease (setting [2]), the IC50 is less than 100 nM. Moreover, the EC50 in data set [1] (setting [3]) is less than 100 nM.
Consider `CC(C)C[C@H]1C(=O)N2C[C@]3(C[C@H]2C#N)C(=O)Nc2ccc(cc23)CCCCCN1C(=O)c1cnn(-c2ccc(F)cc2F)c1` [Example 23], for which the IC50 at SARS-CoV-2 3CL-protease (setting [2]) was less than 100 nM. For the same molecule, in data set [1] (setting [3]), the EC50 was less than 100 nM.
Regarding `CC(C)C[C@H]1C(=O)N2C[C@]3(C[C@H]2C#N)C(=O)Nc2ccc(cc23)CCCCCN1C(=O)C(=O)NC1(c2ccc(F)cc2F)CC1` [Example 24], the IC50 at SARS-CoV-2 3CL-protease (setting [2]) was less than 100 nM. Moreover, the EC50 in data set [1] (setting [3]) is less than 100 nM.
On to `CC(C)C[C@H]1C(=O)N2C[C@]3(C[C@H]2C#N)C(=O)Nc2ccc(cc23)CCCCCN1C(=O)c1cnn(-c2ccc(Cl)cc2Cl)c1` [Example 25], for which, on SARS-CoV-2 3CL-protease (setting [2]), the IC50 was less than 100 nM.
As to `CC(C)C[C@H]1C(=O)N2C[C@]3(C[C@H]2C#N)C(=O)Nc2ccc(cc23)C(O)CCCCN1C(=O)c1cc2c(F)cc(F)cc2[nH]1` (stereo partly shown) [Example 26], the IC50 at SARS-CoV-2 3CL-protease (setting [2]) is less than 100 nM. In addition, the EC50 in data set [1] (setting [3]) was less than 100 nM.
Regarding `CC(C)C[C@H]1C(=O)N2C[C@]3(C[C@H]2C#N)C(=O)Nc2ccc(cc23)C(=O)CCCCN1C(=O)c1cc2c(F)cc(F)cc2[nH]1` [Example 27], the IC50 at SARS-CoV-2 3CL-protease (setting [2]) is less than 100 nM. In addition, the EC50 in data set [1] (setting [3]) was less than 100 nM.
On to `CC(C)C[C@H]1C(=O)N2C[C@]3(C[C@H]2C#N)C(=O)Nc2ccc(cc23)OCCCCN1C(=O)c1cc2c(F)cc(F)cc2[nH]1` [Example 28], for which, on SARS-CoV-2 3CL-protease (setting [2]), the IC50 is less than 100 nM. Besides, in data set [1] (setting [3]), the EC50 is less than 100 nM.
For the molecule `CC(C)C[C@H]1C(=O)N2C[C@]3(C[C@H]2C#N)C(=O)Nc2ccc(cc23)OCCCCN1C(=O)C(=O)NC1(c2ccc(F)cc2F)CC1` [Example 29], the IC50 on SARS-CoV-2 3CL-protease (setting [2]) is less than 100 nM.
